For test [1], the target named is T1, human prostanoid receptor EP2 (Homo sapiens, UniProt P43116).
T1 construct: expressed in transfected cells; host or cells: CHO-K1 (CHOp6CreLuc-huEP2)
The test is described as follows: EP2 cAMP release assay in CHOp6CreLuc-huEP2 cells (CRE-luciferase readout). The test is classed as cell-based. The note with it: CHOp6CreLuc-huEP2 cells, 4 hours at 37° C.; reported as range bins; read-out: EP2 cAMP release assay pEC50 (-log EC50) (converted). As for the experimental part:
Method for Measuring cAMP Release in Human EP2 Stably Transfectant Cells:
The potency and efficacy of EP2 agonists have been determined via measuring cAMP release in stably transfectant CHO-K1 cell expressing the human prostanoid receptor EP2 and luciferase enzyme regulated via a 6 times CRE (cAMP response element) containing transcriptional promoter. CHOp6CreLuc-huEP2 cells were seeded into 384-well plate (1000 cells per well) in DMEM/F12 (Dulbecco's Modified Eagle Medium/Nutrient Mixture F12) cell culture medium containing 2% FCS (Fetal Calf Serum) and 500 μg/ml G418 24 hours prior to the experiment. Test compound was added as serial dilutions while keeping the final DMSO concentration constant in each well. […] Cells were incubated together with test compound or butaprost for 4 hours at 37° C. The cAMP release was determined indirectly via luciferase activity that directly correlated to the amount of luciferase enzyme expressed in response to cAMP regulated promoter activity. The luciferase activity was determined by addition of luciferin containing buffer and subsequent quantification of resulting luminescence. Each sample was measured in quadruplicates per experiment and half-maximal effective concentration (EC50) and relative maximal effect compared to butaprost was determined from 3 independent experiments with GraphPad Prism Software. A compound that achieved over 80% of the maximal effect of butaprost was considered as full agonist.
For the following compounds the potency was determined in the cAMP release assay applying human EP2 transfectant CHOp6CreLuc-huEP2 cells. […] The numbers of the compounds correspond to the examples numbers.
EP2 cAMP Release Assay: pEC50

In test [2] the test system is TNFalpha release in human peripheral blood mononuclear cells (PBMC) stimulated with LPS. Nature of the test: Inhibition of LPS induced TNFalpha release in human PBMCs. The note with it: 1 ng/mL LPS, 24 hours, reported as range bins, read-out: Inhibition of LPS induced TNFalpha release in human PBMCs pIC30 (-log IC30). It is filed as cell-based. As for the experimental part:
Method for Measuring the Inhibition of TNFalpha Release in Human Peripheral Blood MononuClear Cells (PBMC) Stimulated with LPS:
Assay was performed with some modifications of the method described by Hatzelmann and Schudt (Hatzelmann and Schudt 2001, J. Pharmacol. Exp. Therapeutics 297: 267-279) and the protocol “drawing of venous blood from healthy volunteers for in vitro studies” was approved by the ethics committee of the Landesärztekammer Baden Württemberg in Stuttgart. Peripheral blood mononuclear cells (PBMCs) were isolated from venous blood with the anticoagulant citrate from healthy donors according to standard protocols using Ficoll. The cell layer of PBMCs were washed twice with phosphate buffer solution and equilibrated at room temperature for 60 minutes. 500,000 PBMCs in 180 microL RPMI1640 cell medium supplemented with 10% FCS, NEAA (Non-essential-amino-acids), L-Glutamine and Sodium Pyruvate per sample were pre-incubated with 10 microL of a serial dilution of test compound or piclamilast as positive control for 60 min. at 37° C. After pre-incubation blood samples were stimulated by the addition of 10 microL LPS (Sigma, Aldrich) per sample resulting in a final concentration of 1 ng/mL LPS and a final volume of 200 microL. Cells were incubated for 24 hours at 37° C. TNFalpha levels were determined from cell supernatant that was obtained by a centrifugation step and transferring the supernatant to a new 96-well plate. Content of TNFalpha was determined via alphaLISA Technology according to manufacture protocol (Perkin Elmer).
PBMC samples that were not stimulated with LPS were used as control and set for 100% inhibition. PBMC samples that were stimulated with LPS and solvent instead of test compound were set as 0% inhibition. Percent inhibition was calculated based on these controls for each sample and since most compounds achieved saturating maximal inhibition of 60% a pIC30 value was calculated with GraphPad Prism Software.
For the following compounds the inhibitory values of TNFalpha release [determined as −log IC30=pIC30] in human PBMCs between 5.0 and 5.9, between 6.0 and 6.9, between 7.0 and 7.9 and between 8.0 and 9.0 have been determined. The numbers of the compounds correspond to the examples numbers.
Inhibition of LPS Induced TNFalpha Release Assay in Human PBMCs: pIC30

The target of another test is T2, human EP2 receptor (Homo sapiens, UniProt P43116).
T2 construct: purchased Millipore
The test is described as follows: EP2 binding assay (PGE2 displacement). Conditions: recombinant human EP2 membranes, 1 nanoM [3H]-PGE2; reported as range bins; read-out: EP2 binding (PGE2 displacement) pIC50 (-log IC50) (converted). As for the experimental part:
Method for Measuring Inhibition of PGE2 Binding to the Human Prostanoid Receptor EP2:
Human EP2 receptor equilibrium competition binding assays were performed according to Abramovitz et al. (M. Abramovitz et al. 2000, Biochimica et Biophysica Acta 1483: 285-293) in a final incubation volume of 100 microL in 50 milliM Bis-Tris, pH6.0 in 96-well plates. Radiolabelled Prostaglandin E2 (PGE2) (1 nanoM [^3H]-PGE2 purchased from Perkin Elmer) was added to the assay as competitive ligand. Test compounds stored as Dimethylsulfoxide (DMSO) stock solutions were added to the assay in serial dilutions in assay buffer while keeping the final DMSO concentration equal in each sample. The reaction was initiated by addition of membrane proteins harbouring human EP2 receptor (ChemiSCREEN™ membrane preparation recombinant human EP2 prostanoid receptor that was purchased by Millipore). Total binding was determined in the absence of test compound or PGE2 and non-specific binding was determined in the presence of 1 microM PGE2. Incubations were conducted for 60 minutes at room temperature until equilibrium was reached and terminated by filtration through GF/B filter (Perkin Elmer) prewetted with 0.3% PEI solution. Unbound radiolabelled PGE2 was removed by 8 wash cycles with the same buffer under ice-cold conditions and the filters containing the residual radioactivity were dried for 60 minutes at 60° C. In order to measure the filter bound radioactivity, 40 microL microscint (scintillation liquid) was added to each filter and the chemiluminescence was determined by TopCount-NTX™. The specific binding was calculated by subtracting non-specific binding from each sample. Percent inhibition by test compounds was calculated based on specific binding without test compound. Each sample was measured in triplicates per experiment and for the calculation of the pIC50 at least 2 independent experiments were performed. Determination of half maximal inhibiting concentration (IC50) was performed with GraphPad Prism Software.
The numbers of the compounds correspond to the examples numbers.
EP2 Binding Assay (PGE2 Displacement): pIC50 Values

The test system of test [3] is TNFalpha release in human whole blood stimulated with LPS. Nature of the test: Inhibition of LPS induced TNFalpha release in human whole blood. The test is classed as cell-based. The note with it: 1 microg/mL LPS, 4 hours, reported as range bins, read-out: Inhibition of LPS induced TNFalpha release in human whole blood pIC30 (-log IC30). As for the experimental part:
Method for Measuring the Inhibition of TNFalpha Release in Human Whole Blood Stimulated with LPS:
Assay was performed with some modifications of the method described by Hatzelmann and Schudt (Hatzelmann and Schudt (2001) JPET 297: 267-279) and the protocol “drawing of venous blood from healthy volunteers for in vitro studies” was approved by the ethics committee of the Landesärztekammer Baden Württemberg in Stuttgart.
Heparinised venous blood was equilibrated to assay conditions for 1 hour at room temperature upon blood drawing. Immediately thereafter, 200 microL whole blood per sample were pre-incubated with 25 microL of a serial dilution of test compound or piclamilast as positive control for 30 min. at 37° C. After pre-incubation blood samples were stimulated by the addition of 25 microL lipopolysaccharide (LPS) (Sigma, Aldrich) per sample resulting in a final concentration of 1 microg/mL LPS and a final volume of 250 microL. Cells were incubated for 4 hours at 37° C. TNFalpha levels were determined from plasma that was obtained by a centrifugation step and transferring the supernatant to a new 96-well plate which was again centrifuged and clear plasma supernatant was used for the measurement of TNFalpha via alphaLISA Technology according to manufacture protocol (Perkin Elmer).
Whole blood samples that were not stimulated with LPS were used as control and set for 100% inhibition. Whole blood samples that were stimulated with LPS and solvent instead of test compound were set as 0% inhibition. Percent inhibition was calculated based on these controls for each sample and since most compounds achieved saturating maximal inhibition of 60% a pIC30 value was calculated with GraphPad Prism Software.
For the following compounds the inhibitory values of TNFalpha release [determined as −log IC30=pIC30] in the human whole blood assay between 4.5 and 4.9, between 5.0 and 5.9 and between 6.0 and 6.9 have been determined. The numbers of the compounds correspond to the examples numbers.
Inhibition of LPS Induced TNFalpha Release Assay in Human Whole Blood: pIC30

The results in this text go back to patent US9309187B2, “EP2 receptor agonists” (TAKEDA GMBH, priority 2012, dated 2016).

In general, EC50 refers to the concentration at which the effect is half-maximal. As usually defined, the IC30 is the concentration needed for an effect of 30%. As a reminder, the IC50 is the concentration that inhibits the measured activity by half.

SMILES strings stand for the structures.

T1 sequence (P43116 whole entry): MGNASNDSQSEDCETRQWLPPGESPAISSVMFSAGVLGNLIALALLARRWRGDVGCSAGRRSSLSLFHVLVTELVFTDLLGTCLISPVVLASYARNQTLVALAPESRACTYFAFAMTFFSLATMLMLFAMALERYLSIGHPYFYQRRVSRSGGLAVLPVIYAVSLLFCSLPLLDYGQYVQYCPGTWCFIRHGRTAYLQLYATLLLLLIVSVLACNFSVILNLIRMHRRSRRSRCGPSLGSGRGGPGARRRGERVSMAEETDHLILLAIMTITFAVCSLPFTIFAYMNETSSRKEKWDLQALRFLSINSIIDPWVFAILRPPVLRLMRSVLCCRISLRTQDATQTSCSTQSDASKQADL
T2 sequence (P43116 whole entry): as above

As to `O=C(O)/C=C/c1cccc(NC(=O)c2cc(-c3cccc(O)c3)cc3ccccc23)c1` [Example 19, (2E)-3-[3-({[3-(3-hydroxyphenyl)naphthalen-1-yl]carbonyl}amino)phenyl]prop-2-enoic acid], the EC50 in test [1] is 0.00631 to 0.1 nM. In addition, the results for the IC30 in test [2] and in test [3] were 12.6 to 100 nM and 126 to 1000 nM, respectively. In addition, the IC50 at human EP2 receptor was 1.26 to 10 nM.

Turning to `O=C(O)/C=C/c1ccc(F)c(NC(=O)c2cc(N3CCCCC3)cc3ccccc23)c1` [Example 22, (2E)-3-[4-fluoro-3-({[3-(piperidin-1-yl)naphthalen-1-yl]carbonyl}amino)phenyl]prop-2-enoic acid], the EC50 in test [1] is 0.126 to 1 nM. Moreover, the IC30 lay in the range of 12.6 to 100 nM in test [2] and 1260 to 10000 nM in test [3]. In addition, the IC50 at human EP2 receptor is 12.6 to 100 nM.

Turning to `O=C(O)/C=C/c1ccc(F)c(NC(=O)c2cc(-c3ccccc3CO)cc3ccccc23)c1` [Example 13, (2E)-3-{4-fluoro-3-[({3-[2-(hydroxymethyl)phenyl]naphthalen-1-yl}carbonyl)amino]phenyl}prop-2-enoic acid], the EC50 in test [1] is 0.126 to 1 nM. For the same molecule, the IC30 in test [2] and in test [3] was 126 to 1000 nM in each case. Also, the IC50 on human EP2 receptor is 1.26 to 10 nM.

`O=C(O)COc1cccc(NC(=O)c2cc(-c3ccccc3)cc3ccccc23)c1` [Example 4]: the EC50 in test [1] is 0.126 to 1 nM. The IC30 in test [2] fell in the range of 126 to 1000 nM; in test [3], 12600 to 31600 nM. Further, the IC50 on human EP2 receptor was 1.26 to 10 nM.
